US20190055576A1, “USE OF HERBICIDE-TOLERANT PROTEIN” (BEIJING DABEINONG TECHNOLOGY GROUP CO., LTD., priority 2016, published 2019)

Tested on: transgenic maize plants (Zm cytoplasmic/chloroplastic ALT-1-02, ALT-2-02, ALT-3-02)
Experiment: Sulfometuron-methyl tolerance of transgenic maize plants, damage degree by plant growth status
Type: in vivo
Details: 120 g ai/ha; for Average damage % 3DAT / Average damage % 7DAT / Average damage % 14DAT / Average damage % 21DAT: 4-fold field concentration; for Average damage % 3DAT: 3 days after spraying; for Average damage % 7DAT: 7 days after spraying; for Average damage % 14DAT: 14 days after spraying; for Average damage % 21DAT: 21 days after spraying
Excerpt: The herbicide tolerance effects of Zm cytoplasmic ALT-1-02 maize plants, Zm chloroplastic ALT-1-02 maize plants, Zm cytoplasmic ALT-2-02 maize plants, Zm chloroplastic ALT-2-02 maize plants, Zm cytoplasmic ALT-3-02 maize plants, Zm chloroplastic ALT-3-02 maize plants and wild-type maize plants on Sulfometuron-methyl were detected (at V3-V4 stage), respectively.
Zm cytoplasmic ALT-1-02 maize plants, Zm chloroplastic ALT-1-02 maize plants, Zm cytoplasmic ALT-2-02 maize plants, Zm chloroplastic ALT-2-02 maize plants, Zm cytoplasmic ALT-3-02 maize plants, Zm chloroplastic ALT-3-02 maize plants and wild-type maize plants were respectively taken and sprayed with Sulfometuron-methyl (120 g ai/ha, 4-fold field concentration) and a blank solvent (water). The damage degree caused by the herbicide was measured for each plant according to the plant growth status 3 days after spraying (3 DAT), 7 days after spraying (7 DAT), 14 days after spraying (14 DAT) and 21 days after spraying (21 DAT), respectively: considering a growth status equivalent to that of the untreated plants as having a damage degree of 0%; considering conditions of leaves being partially chlorotic and yellow but substantially not affecting the plant normal growth as having a damage degree of 50%; and considering the whole plant being purple and dying as having a damage degree of 100%. There were 2 strains in Zm cytoplasmic ALT-1-02 maize plants in total (S13 and S14), 2 strains in Zm chloroplastic ALT-1-02 maize plants in total (S15 and S16), 2 strains in Zm cytoplasmic ALT-2-02 maize plants in total (S17 and S18), 2 strains in Zm chloroplastic ALT-2-02 maize plants in total (S19 and S20), 2 strains in Zm cytoplasmic ALT-3-02 maize plants in total (S21 and S22), 2 strains in Zm chloroplastic ALT-3-02 maize plants in total (S23 and S24), and 1 strain in wild-type maize plants (CK2) in total; and 10-15 plants were selected from each strain and tested.

[1] = strain S13 (Zm cytoplasmic ALT-1-02 maize)
[2] = strain S14 (Zm cytoplasmic ALT-1-02 maize)
[3] = strain S15 (Zm chloroplastic ALT-1-02 maize)
[4] = strain S16 (Zm chloroplastic ALT-1-02 maize)
[5] = strain S17 (Zm cytoplasmic ALT-2-02 maize)
[6] = strain S18 (Zm cytoplasmic ALT-2-02 maize)
[7] = strain S19 (Zm chloroplastic ALT-2-02 maize)
[8] = strain S20 (Zm chloroplastic ALT-2-02 maize)
[9] = strain S21 (Zm cytoplasmic ALT-3-02 maize)
[10] = strain S22 (Zm cytoplasmic ALT-3-02 maize)
[11] = strain S23 (Zm chloroplastic ALT-3-02 maize)
[12] = strain S24 (Zm chloroplastic ALT-3-02 maize)

COC(=O)c1ccccc1S(=O)(=O)NC(=O)Nc1nc(C)cc(C)n1 [Sulfometuron-methyl, 2-(4,6-dimethylpyrimidine-2-amino-formamido-sulfonyl) methyl benzoate]
Average damage % 3DAT [1]: 6%
Average damage % 7DAT [1]: 0%
Average damage % 14DAT [1]: 0%
Average damage % 21DAT [1]: 0%
Average damage % 3DAT [2]: 7%
Average damage % 7DAT [2]: 0%
Average damage % 14DAT [2]: 0%
Average damage % 21DAT [2]: 0%
Average damage % 3DAT [3]: 0%
Average damage % 7DAT [3]: 0%
Average damage % 14DAT [3]: 0%
Average damage % 21DAT [3]: 0%
Average damage % 3DAT [4]: 0%
Average damage % 7DAT [4]: 0%
Average damage % 14DAT [4]: 0%
Average damage % 21DAT [4]: 0%
Average damage % 3DAT [5]: 6%
Average damage % 7DAT [5]: 0%
Average damage % 14DAT [5]: 0%
Average damage % 21DAT [5]: 0%
Average damage % 3DAT [6]: 5%
Average damage % 7DAT [6]: 0%
Average damage % 14DAT [6]: 0%
Average damage % 21DAT [6]: 0%
Average damage % 3DAT [7]: 0%
Average damage % 7DAT [7]: 0%
Average damage % 14DAT [7]: 0%
Average damage % 21DAT [7]: 0%
Average damage % 3DAT [8]: 0%
Average damage % 7DAT [8]: 0%
Average damage % 14DAT [8]: 0%
Average damage % 21DAT [8]: 0%
Average damage % 3DAT [9]: 5%
Average damage % 7DAT [9]: 0%
Average damage % 14DAT [9]: 0%
Average damage % 21DAT [9]: 0%
Average damage % 3DAT [10]: 5%
Average damage % 7DAT [10]: 0%
Average damage % 14DAT [10]: 0%
Average damage % 21DAT [10]: 0%
Average damage % 3DAT [11]: 0%
Average damage % 7DAT [11]: 0%
Average damage % 14DAT [11]: 0%
Average damage % 21DAT [11]: 0%
Average damage % 3DAT [12]: 0%
Average damage % 7DAT [12]: 0%
Average damage % 14DAT [12]: 0%
Average damage % 21DAT [12]: 0%
herbicide tolerance conferred by the thifensulfuron hydrolase (ALT-1, ALT-2 and ALT-3) (transgenic maize plants): conferred a high level of Sulfometuron-methyl herbicide tolerance
